Measured values published in patent US5773438A, “Synthetic matrix metalloprotease inhibitors and use thereof” (Glycomed Incorporated, priority 1994, dated 1998).

Key:
[1] = tested on: PdiBu-Induced Epidermal Hyperplasia; assay: PdiBu-induced epidermal hyperplasia mouse model (psoriasis); assay type: in vivo, hairless mice
Description: The phorbol ester, PdiBu (20 nmol in 20 μl if acetone) was applied to both ears of hairless mice (h/h) (approximately 1 cm^2 each). The test compounds (in total volume of 20 μl) were then applied to the right ear immediately (15 to 30 min) following PdiBu. The left ear of each animal received an equivalent amount (20 μl) of vehicle. Test compounds (and vehicle) were reapplied at 6 and 18 hours following PdiBu. Treatment times were staggered to allow exact time intervals to be obtained. At 30 hours after PdiBu, animals were anesthetized, and ear thickness values were obtained using a microcaliper. The weights of punch biopsies (6mm) were then obtained. Histology was performed on selected samples taken at 30 hours.
Left ear in each animal served as vehicle-treated controls (PdiBu+ETOH). Thus, the controls for this series include: 1) Untreated controls; 2) PdiBu plus vehicle alone (included for each mouse tested); 3) PdiBu plus AHA; 4) PdiBu plus Lidex® as a positive control.

MMPs = conditions: cited from earlier work

CC(=O)NO [AHA, acetohydroxamic acid, reference compound]
ear thickness (AHA control) ([1]; PdiBu + AHA, 0.53 μmol/ear at 0.25, 6.0 and 24 hours): 36.8 ± 1.3 inch × 10^-3 | biopsy weight (AHA control) ([1]; PdiBu + AHA, 0.53 μmol/ear at 0.25, 6.0 and 24 hours, in mg): 24.1 ± 1.2 | ear thickness (positive control section) ([1]; Positive Control: Lidex (fluocinonide) section, single experiment): 15.8 ± 0.4 | biopsy weight (positive control section) ([1]; Positive Control: Lidex (fluocinonide) section, single experiment, in mg): 9.7 ± 0.3 | effect on PdiBu-induced ear thickness ([1]; topical): did not alter | effect on PdiBu-induced increase in punch biopsy weight ([1]; topical): did not alter | inhibitory effects on MMPs (MMPs): devoid of inhibitory effects on MMPs
